Laboratory results as given in patent publication US9969768B1 (KING SAUD UNIVERSITY, priority 2017, dated 2018).

Tests used:
[1] = tested on: alloxan-induced diabetic mice; test: In vivo oral hypoglycemic activity, acute study; settings: for % Change in SG: diabetic mice
Procedure: The percentage change in blood glucose levels in diabetic mice after oral administration of the test compounds, at a concentration of 200 μg/kg body weight, were determined at 2, 4, 6, and 24 hours.
The synthesized compounds were screened for hypoglycemic activity in vivo using the alloxan-induced diabetic mice model. For the acute study, animals were fasted overnight and the fasting blood serum glucose (SG) level was determined at 0 hours. Then the compounds were administered at a fixed dose of 200 μg/kg body weight orally (homogenized suspension in 0.5% carboxymethyl cellulose (CMC) with Tween 80). Animals in the vehicle group were given an equal amount of 0.5% CMC, while those in the control group were maintained as is. Blood samples were removed from all animals at 2, 4, 6 and 24 hours and percentage change in SG was calculated. See, Dunn, J. S., Letchie, N. G., “Experimental alloxan diabetes in the rat,” The Lancet 242(6265): 384-387 (1943); and Mourao R. H., Silva T. G., et al., “Synthesis and Biological Activity of Novel Acridinylidene and Benzylidene thiazolidinediones,” Eur. J. Med. Chem., 40: 1129-1133 (2005).

DPP-IV = target: T1, DPP-IV (Homo sapiens, UniProt P27487); test: DPP-IV inhibition activity (fluorescence); assay type: biochemical; settings: mean ± S.E.M., n = 6
T1 construct: purchased Sigma
T1 sequence (P27487 whole entry, species assumed): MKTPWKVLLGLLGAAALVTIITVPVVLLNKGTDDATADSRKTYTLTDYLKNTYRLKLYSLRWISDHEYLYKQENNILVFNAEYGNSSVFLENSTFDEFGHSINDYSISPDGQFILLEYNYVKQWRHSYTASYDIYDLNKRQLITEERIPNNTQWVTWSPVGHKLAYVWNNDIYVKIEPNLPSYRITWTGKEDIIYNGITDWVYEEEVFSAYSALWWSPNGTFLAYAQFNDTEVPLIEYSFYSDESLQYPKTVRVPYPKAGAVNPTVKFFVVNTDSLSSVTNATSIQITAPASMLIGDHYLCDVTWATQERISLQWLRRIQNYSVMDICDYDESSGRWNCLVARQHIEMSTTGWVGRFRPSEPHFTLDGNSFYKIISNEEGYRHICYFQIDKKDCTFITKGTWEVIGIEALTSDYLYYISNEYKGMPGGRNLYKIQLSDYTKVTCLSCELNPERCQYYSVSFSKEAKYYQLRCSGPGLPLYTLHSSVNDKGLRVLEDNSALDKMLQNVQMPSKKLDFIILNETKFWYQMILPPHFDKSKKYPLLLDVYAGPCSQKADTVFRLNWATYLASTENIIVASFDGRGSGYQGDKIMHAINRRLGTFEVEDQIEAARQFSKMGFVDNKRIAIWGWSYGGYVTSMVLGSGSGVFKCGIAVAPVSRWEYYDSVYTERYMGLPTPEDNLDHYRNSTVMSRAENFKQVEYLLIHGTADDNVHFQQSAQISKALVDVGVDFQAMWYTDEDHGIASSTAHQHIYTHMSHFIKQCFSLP
Procedure: A […] reaction system containing DPP-IV (Sigma), a test compound, and 25 mmol/L 4-(2-hydroxyethyl)-1-piperazineethanesulfonic acid (HEPES) buffer (containing 140 mmol/L NaCl, 1% Bovine serum albumin (BSA) and 80 mmol/L MgCl2) was pre-incubated at room temperature for 10 minutes. The reaction was initiated by the addition of […], and the reaction mixture was then incubated at room temperature for 25-45 minutes. […] A negative control (no test compound) and a blank control (no enzyme) were run simultaneously. The test compounds were initially assayed in duplicate at a concentration of 10 mg/mL.

[2] = tested on: alloxan-induced diabetic mice; test: In vivo oral hypoglycemic activity, sub-acute study
Procedure: Study animals were fasted overnight, and the fasting SG levels calculated at 0 days. The test compounds were administered at a fixed dose of 200 μg/kg body weight orally (homogenized suspension in 0.5% CMC and permissible amounts of Tween 80) for 21 days at a fixed time. After 21 days, treatment was stopped and animals were left for a rest period of 7 days. Animals in the vehicle group were given an equal amount of 0.5% CMC, while those in the control group were maintained as is. During the study, blood samples were removed from all animals at 7, 14, 21 and 28 days, and the percentage change in SG was calculated. The data obtained were analyzed by one-way ANOVA followed by the Dunnett test. The results were expressed as mean±standard error of mean (SEM) for each group, while p<0.01 or p<0.05 was considered to be statistically significant. The percentage changes in blood glucose levels after oral administration, at 200 μg/kg body weight, were evaluated, and are reported in Table 5.

[3] = target: α-Glucosidase from Saccharomyces cerevisiae; test: α-Glucosidase inhibitory activity (chromogenic method); assay type: biochemical; settings: mean ± S.E.M., n = 6
Procedure: The α-Glucosidase inhibitory activity of each compound was determined according to the chromogenic method described by Chapdelaine et al with slight modifications. See, Chapdelaine P., Tremblay R. R., Dube, J. Y., “P-Nitrophenol-alpha-D-gluco-pyranoside as substrate for measurement of maltase activity in human semen,” Clin. Chem., 24: 208-211 (1978). α-Glucosidase from Saccharomyces cerevisiae and substrate solution […] (PNPG) were prepared with 0.1 mol L^−1 of Na-phosphate buffer (pH 6.8). The inhibitors were reconstituted in […] phosphate buffer in a 96-well microplate and incubated with […] α-Glucosidase at 37° C. for 15 minutes, and then 30 μL substrate was added. After incubation with substrate for 5 minutes, release of p-nitrophenol was measured at 405 nm by spectrophotometry. Percentage of enzyme inhibition was calculated according to {1−(Asample−Ablank)/Acontrol}×100, where Asample represents absorbance of test samples, Acontrol represents absorbance of solution without sample, and A blank represents absorbance in presence of solution without substrate.

PPAR = PPAR agonist activity, PPRE-Luc dual luciferase reporter in HepG2 cells; assay type: cell-based; settings: mean ± S.E.M., n = 6
Procedure: HepG2 cells were cultured in low glucose Dulbecco's Modified Eagle's medium (DMEM) supplemented with 100 U/mL streptomycin and penicillin. One day prior to transfection, the cells were plated in 96-well plates at 1.5×10^4 cells per well. After reaching 70% confluence, plasmid peroxisome proliferator responsive element-luciferase (PPRE-Luc) with firefly luciferase reporter gene and the control plasmid phRL-TK with renilla luciferase reporter gene were transfected into the cells. After 24 hours, the medium was replaced with either fresh medium (negative control) or fresh medium containing a test compound (10 mg/mL) or pioglitazone (positive control). Non-transfected cells were used as blank. After a further 24 hours, the expression of luciferases was measured using the Dual Luciferase Reporter Gene Assay Kit (Promega). The percent activation (T %) was calculated as [(L1sample−L1Blank)/(L1Negative−L1Blank)]/[(L2Sample−L2Blank)/(L2Negative−L2Blank)]×100%, where L1 represents the value for the value for firefly luciferase and L2 the value for Renilla luciferase. Xing-hua Z., Jufang Y., LiFan, W., Dacheng Y., “Synthesis and antidiabetic activity of β-acetamido ketones,” Acta Pharmaceutica Sinica 1(2):100-105 (2011).

[4] = 2 h after 200 μg/kg body weight orally
[5] = 4 h after 200 μg/kg body weight orally
[6] = 6 h after 200 μg/kg body weight orally
[7] = 24 h after 200 μg/kg body weight orally
[8] = 7 day, 200 μg/kg body weight orally daily
[9] = 7 days rest period after 21 days of treatment, 200 μg/kg orally
[10] = 14 day, 200 μg/kg body weight orally daily
[11] = 21 day, 200 μg/kg body weight orally daily

C[C@H]1O[C@H](O[C@H]2[C@H](O)[C@@H](O)[C@@H](O[C@H]3[C@H](O)[C@@H](O)C(O)O[C@@H]3CO)O[C@@H]2CO)[C@H](O)[C@@H](O)[C@@H]1N[C@H]1C=C(CO)[C@@H](O)[C@H](O)[C@H]1O (stereo partly shown) [Acarbose, reference compound]
% Change in SG [1, 4]: −29.23% | % Change in SG [1, 5]: −27.87% | % Change in SG [1, 6]: −20.17% | % Change in SG [1, 7]: −22.39% | IC50 (DPP-IV): 176000 nM | % Change in SG [2, 8]: −18.29% | % Change in SG [2, 9]: −27.65% | % Change in SG [2, 10]: −24.55% | % Change in SG [2, 11]: −31.78%

COC(=O)[C@]12CCC(C)(C)C[C@H]1C1=CC[C@@H]3[C@@]4(C)CCC(=O)C(C)(C)[C@@H]4CC[C@@]3(C)[C@]1(C)CC2 [Compound 1, 3-oxo-oleanolic acid methyl ester]
IC50 [3]: 1700 ± 30 nM | IC50 (PPAR): 120 ± 4 nM | % Change in SG [1, 4]: −69.40% | % Change in SG [1, 5]: −71.89% | % Change in SG [1, 6]: −79.32% | % Change in SG [1, 7]: −73.29% | IC50 (DPP-IV): 91 ± 0.9 nM | % Change in SG [2, 8]: −59.76% | % Change in SG [2, 9]: −81.20% | % Change in SG [2, 10]: −68.78% | % Change in SG [2, 11]: −84.65%

CC1(C)CC[C@]2(C(=O)O)CC[C@]3(C)C(=CC[C@@H]4[C@@]5(C)CC[C@H](O)C(C)(C)[C@@H]5CC[C@]43C)[C@@H]2C1 [Oleanolic acid, reference compound]
IC50 (PPAR): 14900 nM | % Change in SG [1, 4]: −40.79% | % Change in SG [1, 5]: −48.66% | % Change in SG [1, 6]: −52.17% | % Change in SG [1, 7]: −51.01% | % Change in SG [2, 8]: −10.56% | % Change in SG [2, 9]: −30.32% | % Change in SG [2, 10]: −20.35% | % Change in SG [2, 11]: −37.68%

CCc1ccc(CCOc2ccc(CC3SC(=O)NC3=O)cc2)nc1 (stereo not shown) [Pioglitazone, reference compound]
% Change in SG [1, 4]: −32.16% | % Change in SG [1, 5]: −22.45% | % Change in SG [1, 6]: −12.34% | % Change in SG [1, 7]: −13.28% | time of maximum activity post-administration ([1]; acute study, 200 μg/kg orally): 2 h | % Change in SG [2, 8]: −11.23% | % Change in SG [2, 9]: −43.45% | % Change in SG [2, 10]: −18.34% | % Change in SG [2, 11]: −50.39%

methyl-2-{4-pyridylidene}-3-oxo-18β-Olean-12-en-28-oate [Compound 2]
% Change in SG [1, 4]: −74.70% | % Change in SG [1, 5]: −81.67% | % Change in SG [1, 6]: −84.30% | % Change in SG [1, 7]: −80.78% | % Change in SG [2, 8]: −62.35% | % Change in SG [2, 9]: −86.25% | % Change in SG [2, 10]: −71.78% | % Change in SG [2, 11]: −87.54%

methyl-2-{(4-pyridyl)-N-morpholinylmethane}-3-oxo-18β-olean-12-en-28-oate [Compound 4]
IC50 [3]: 87 ± 1 nM | IC50 (PPAR): 7.8 ± 0.5 nM | % Change in SG [1, 4]: −78.88% | % Change in SG [1, 5]: −85.89% | % Change in SG [1, 6]: −90.00% | % Change in SG [1, 7]: −88.88% | IC50 (DPP-IV): 4.4 ± 0.5 nM | % Change in SG [2, 8]: −67.90% | % Change in SG [2, 9]: −86.43% | % Change in SG [2, 10]: −74.78% | % Change in SG [2, 11]: −90.87%

methyl-2-{N-(morpholino) methane}-3β-hydroxy-3α-phenyl-18β-Olean-12-ene-28-oate [Compound 6]
% Change in SG [1, 4]: −73.60% | % Change in SG [1, 5]: −80.74% | % Change in SG [1, 6]: −82.33% | % Change in SG [1, 7]: −77.80% | % Change in SG [2, 8]: −61.68% | % Change in SG [2, 9]: −85.89% | % Change in SG [2, 10]: −70.54% | % Change in SG [2, 11]: −86.45%

methyl-2-{N-(morpholino)methane}-3-oxo-18β-olean-12-ene-28-oate [Compound 5]
% Change in SG [1, 4]: −70.60% | % Change in SG [1, 5]: −79.01% | % Change in SG [1, 6]: −80.43% | % Change in SG [1, 7]: −75.41% | % Change in SG [2, 8]: −60.89% | % Change in SG [2, 9]: −84.29% | % Change in SG [2, 10]: −70.53% | % Change in SG [2, 11]: −85.45%

methyl-2-{phenyl-(4-pyridyl)-methane}-3-oxo-18β-olean-12-en-28-oate [Compound 3]
IC50 [3]: 123 ± 4 nM | % Change in SG [1, 4]: −75.78% | % Change in SG [1, 5]: −82.76% | % Change in SG [1, 6]: −85.74% | % Change in SG [1, 7]: −79.67% | % Change in SG [2, 8]: −66.76% | % Change in SG [2, 9]: −83.56% | % Change in SG [2, 10]: −73.65% | % Change in SG [2, 11]: −89.76%
